Results on one compound are retold here after patent US20120046186A1, “Gene Expression Markers for Prediction of Response to Platinum-Based Chemotherapy Drugs” (priority 2010, published 2012).

For the assay, the system named is HCT 116 cell line. The assay can be described thus: cDNA overexpression of LTBR and TMEM30A: oxaliplatin IC50, cell viability. The class given is cell-based, human. Particulars: 72 h. From the text:
FIGS. 5A-5C show the validation of genes identified in the siRNA screen for genes regulating sensitivity or resistance to oxaliplatin. The effect of siRNA-silencing or cDNA overexpression on the IC50 of oxaliplatin was expressed as the log2 fold-shift of the mean IC50 of siRNA-treated (or cDNA-overexpressing) cells relative to the mean IC50 of non-silencing siRNA control-treated (or vector-alone) cells. […] Data represent mean±SEM (n=3).
Full-length LTBR and TMEM30A open reading frames were cloned into pCMV-XL4 (Origene, Rockville, Md.) and validated by sequencing. Transfection was performed using Turbofectin 8.0® (Origene, Rockville, Md.) in a 96-well format as per manufacturer's instructions using 100 ng cDNA per well. Following a 4 hr incubation, 10 μl per well of an 11-point, 2-fold serial dilution of oxaliplatin (50 μM maximum) was then added. Assays were performed in triplicate, using the empty pCMV-XL4 vector as negative control, with biological replicates. […] Overexpression of cDNA was validated by qRT-PCR using the High-Capacity cDNA Reverse Transcription Kit® (Life Technologies, Carlsbad, Calif.) and qPCR using the 7900 HT Fast Real-Time PCR System® (Life Technologies, Carlsbad, Calif.) with gene-specific primers (ABI, Carlsbad, Calif.).

Molecules are shown by their SMILES.

On to `O=C1[O][Pt]2([NH][C@@H]3CCCC[C@H]3[NH]2)[O]C1=O` [oxaliplatin], for which the “increase of IC50 of oxaliplatin” value is reported as more than 2 fold (transient overexpression of full-length LTBR vs empty pCMV-XL4 vector) and more than 2 fold (transient overexpression of full-length TMEM30A vs empty pCMV-XL4 vector).
